Assay results from patent US7091192B1, “Linear cyclodextrin copolymers” (California Institute of Technology, priority 1998, dated 2006).

What was measured:
KB cell line = assay: MTT toxicity assay, small molecule delivery to cultured cells (KB)
Method: (§1) Media containing doxorubicin and doxorubicin/CD-polymer complexes at various concentrations were applied to cultured cell lines. After 5 hours, the media was removed and replaced with fresh media. […] ([…], “Culture of Animal Cells”, 3rd ed., Wiley-Liss: New York (1994)). […] For receptor-mediated delivery, a ligand such a folate is covalently attached to the CD-polymer used for doxorubicin complexation.

[1] = tested on: KB-VI (a multidrug resistant derivative of KB) cell line; assay: MTT toxicity assay, small molecule delivery to cultured cells (KB-VI)
Method: as §1

[2] = pH 7.1; Husain et al., Applied Spectroscopy 1992; cited from earlier work
[3] = Homo sapiens, KB, 5 h, read-out: IC50 (μM of doxorubicin)

β-cyclodextrin(cystamine)-DTBP Copolymer [Copolymer 15]
Toxicity to KB cells in the absence of doxorubicin (KB cell line): not toxic
Toxicity to KB-VI cells in the absence of doxorubicin [1]: not toxic

COc1cccc2c1C(=O)c1c(O)c3c(c(O)c1C2=O)C[C@@](O)(C(=O)CO)C[C@@H]3O[C@H]1C[C@H](N)[C@H](O)[C@H](C)O1 [doxorubicin]
IC50 (KB cell line; [3]): ~0.1 µM
IC50 [1, 3]: ~10 µM

OC[C@H]1O[C@@H]2O[C@H]3[C@H](O)[C@@H](O)[C@@H](O[C@H]4[C@H](O)[C@@H](O)[C@@H](O[C@H]5[C@H](O)[C@@H](O)[C@@H](O[C@H]6[C@H](O)[C@@H](O)[C@@H](O[C@H]7[C@H](O)[C@@H](O)[C@@H](O[C@H]8[C@H](O)[C@@H](O)[C@@H](O[C@H]1[C@H](O)[C@H]2O)O[C@@H]8CO)O[C@@H]7CO)O[C@@H]6CO)O[C@@H]5CO)O[C@@H]4CO)O[C@@H]3CO [β-CD, β-cyclodextrin]
Association constant between β-CD and doxorubicin [2]: 210 M⁻¹
